In PubChem BioAssay AID1919004 (Molecular Pharmacology Branch, DTP, NCI, 2023):

System: 883617-216-R-J1-PDC complex spheroids, growth, % test/control
Experiment: Anticancer human tumor 883617-216-R-J1-PDC patient-derived bladder carcinoma cell line growth inhibition [AhR]
Details: for IC50: curve of first compound; for viability, T/C: stronger effect = lower value
Summary of the method: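 Spheroids combined tumor cells with HUVEC endothelial cells and human MSCs as stroma. AhR antagonists were paired with standard or investigational drugs, each dosed in half-log steps down from near clinical Cmax, or from 10 microM where Cmax was unknown.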

[1] = second compound 0.1 µM, first compound 0.0316 µM
[2] = second compound 0.1 µM, first compound 0.1 µM
[3] = second compound 0.316 µM, first compound 0.0316 µM
[4] = second compound 0.316 µM, first compound 0.1 µM
[5] = second compound 1 µM, first compound 0.0316 µM
[6] = second compound 1 µM, first compound 0.1 µM
[7] = second compound 3.16 µM, first compound 0.0316 µM
[8] = second compound 3.16 µM, first compound 0.1 µM
[9] = second compound 10 µM, first compound 0.0316 µM
[10] = second compound 10 µM, first compound 0.1 µM
[11] = second compound 0.1 µM, first compound 0.316 µM
[12] = second compound 0.1 µM, first compound 1 µM
[13] = second compound 0.1 µM, first compound 3.16 µM
[14] = second compound 0.1 µM, first compound 10 µM
[15] = second compound 0.316 µM, first compound 0.316 µM
[16] = second compound 0.316 µM, first compound 1 µM
[17] = second compound 0.316 µM, first compound 3.16 µM
[18] = second compound 0.316 µM, first compound 10 µM
[19] = second compound 1 µM, first compound 0.316 µM
[20] = second compound 1 µM, first compound 1 µM
[21] = second compound 1 µM, first compound 3.16 µM
[22] = second compound 1 µM, first compound 10 µM
[23] = second compound 3.16 µM, first compound 0.316 µM
[24] = second compound 3.16 µM, first compound 1 µM
[25] = second compound 3.16 µM, first compound 3.16 µM
[26] = second compound 3.16 µM, first compound 10 µM
[27] = second compound 10 µM, first compound 0.316 µM
[28] = second compound 10 µM, first compound 1 µM
[29] = second compound 10 µM, first compound 3.16 µM
[30] = second compound 10 µM, first compound 10 µM
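Note: exposure lasted 7 days after dosing on day 3 of spheroid growth.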

Compound: CC[C@@]1(O)C(=O)OCc2c1cc1n(c2=O)Cc2cc3c(CN(C)C)c(O)ccc3nc2-1 + Cc1cncc(-c2nc(NCCc3c[nH]c4ccccc34)c3ncn(C(C)C)c3n2)c1
- IC50 (second compound 0.1 µM): > 100 nM
- IC50 (second compound 0.316 µM): > 100 nM
- IC50 (second compound 1 µM): > 100 nM
- IC50 (second compound 3.16 µM): > 100 nM
- IC50 (second compound 10 µM): < 0.316 nM
- viability, T/C (second compound 0.1 µM, first compound 0.000316 µM): 76.2%
- viability, T/C (second compound 0.1 µM, first compound 0.001 µM): 75.1%
- viability, T/C (second compound 0.1 µM, first compound 0.00316 µM): 79.8%
- viability, T/C (second compound 0.1 µM, first compound 0.01 µM): 71%
- viability, T/C [1]: 69.8%
- viability, T/C [2]: 74.3%
- viability, T/C (second compound 0.316 µM, first compound 0.000316 µM): 86.3%
- viability, T/C (second compound 0.316 µM, first compound 0.001 µM): 80.7%
- viability, T/C (second compound 0.316 µM, first compound 0.00316 µM): 74.3%
- viability, T/C (second compound 0.316 µM, first compound 0.01 µM): 79.4%
- viability, T/C [3]: 68.1%
- viability, T/C [4]: 64.7%
- viability, T/C (second compound 1 µM, first compound 0.000316 µM): 93.5%
- viability, T/C (second compound 1 µM, first compound 0.001 µM): 93.9%
- viability, T/C (second compound 1 µM, first compound 0.00316 µM): 83.9%
- viability, T/C (second compound 1 µM, first compound 0.01 µM): 85.6%
- viability, T/C [5]: 88.9%
- viability, T/C [6]: 76.7%
- viability, T/C (second compound 3.16 µM, first compound 0.000316 µM): 96.6%
- viability, T/C (second compound 3.16 µM, first compound 0.001 µM): 84.6%
- viability, T/C (second compound 3.16 µM, first compound 0.00316 µM): 89.7%
- viability, T/C (second compound 3.16 µM, first compound 0.01 µM): 91.9%
- viability, T/C [7]: 84.6%
- viability, T/C [8]: 73.1%
- viability, T/C (second compound 10 µM, first compound 0.000316 µM): 45.7%
- viability, T/C (second compound 10 µM, first compound 0.001 µM): 47.8%
- viability, T/C (second compound 10 µM, first compound 0.00316 µM): 47.9%
- viability, T/C (second compound 10 µM, first compound 0.01 µM): 46.8%
- viability, T/C [9]: 35.4%
- viability, T/C [10]: 32.1%

Compound: COc1cc(C2c3cc4c(cc3C(OC3OC5COC(C)OC5C(O)C3O)C3COC(=O)C23)OCO4)cc(OC)c1O (stereo not given) + Cc1cncc(-c2nc(NCCc3c[nH]c4ccccc34)c3ncn(C(C)C)c3n2)c1
- IC50 (second compound 0.1 µM): > 10000 nM
- IC50 (second compound 0.316 µM): > 10000 nM
- IC50 (second compound 1 µM): > 10000 nM
- IC50 (second compound 3.16 µM): > 10000 nM
- IC50 (second compound 10 µM): 68.8 nM
- viability, T/C [1]: 77.3%
- viability, T/C [2]: 81.3%
- viability, T/C [11]: 70%
- viability, T/C [12]: 66.8%
- viability, T/C [13]: 69.6%
- viability, T/C [14]: 57.4%
- viability, T/C [3]: 84.9%
- viability, T/C [4]: 81.1%
- viability, T/C [15]: 73.6%
- viability, T/C [16]: 65.3%
- viability, T/C [17]: 64.1%
- viability, T/C [18]: 60.9%
- viability, T/C [5]: 91.4%
- viability, T/C [6]: 86.4%
- viability, T/C [19]: 78.7%
- viability, T/C [20]: 71.5%
- viability, T/C [21]: 81.4%
- viability, T/C [22]: 64.7%
- viability, T/C [7]: 89.9%
- viability, T/C [8]: 89%
- viability, T/C [23]: 80.1%
- viability, T/C [24]: 79%
- viability, T/C [25]: 70%
- viability, T/C [26]: 65.6%
- viability, T/C [9]: 51.4%
- viability, T/C [10]: 50.3%
- viability, T/C [27]: 49.9%
- viability, T/C [28]: 39.1%
- viability, T/C [29]: 41.5%
- viability, T/C [30]: 45.5%

Compound: Nc1ccn(C2OC(CO)C(O)C2(F)F)c(=O)n1 (stereo not given) + Cc1cncc(-c2nc(NCCc3c[nH]c4ccccc34)c3ncn(C(C)C)c3n2)c1
- IC50 (second compound 0.1 µM): < 31.6 nM
- IC50 (second compound 0.316 µM): < 31.6 nM
- IC50 (second compound 1 µM): < 31.6 nM
- IC50 (second compound 3.16 µM): 70.8 nM
- IC50 (second compound 10 µM): < 31.6 nM
- viability, T/C [1]: 32.6%
- viability, T/C [2]: 39.7%
- viability, T/C [11]: 43.1%
- viability, T/C [12]: 41.3%
- viability, T/C [13]: 44%
- viability, T/C [14]: 38.9%
- viability, T/C [3]: 34.5%
- viability, T/C [4]: 38.8%
- viability, T/C [15]: 44.9%
- viability, T/C [16]: 38.4%
- viability, T/C [17]: 39.5%
- viability, T/C [18]: 39.4%
- viability, T/C [5]: 46.1%
- viability, T/C [6]: 33.8%
- viability, T/C [19]: 39.3%
- viability, T/C [20]: 37.5%
- viability, T/C [21]: 41.9%
- viability, T/C [22]: 43.4%
- viability, T/C [7]: 71.3%
- viability, T/C [8]: 39.3%
- viability, T/C [23]: 40.6%
- viability, T/C [24]: 41.2%
- viability, T/C [25]: 43.5%
- viability, T/C [26]: 39.1%
- viability, T/C [9]: 33.1%
- viability, T/C [10]: 16.4%
- viability, T/C [27]: 13.5%
- viability, T/C [28]: 10.9%
- viability, T/C [29]: 15.8%
- viability, T/C [30]: 18%
